From publication PMC6242839 (Nature Communications, 2018)
Values after ≈ are worked out from the molar mass of the structure shown.

How the values were obtained:
[1] = test system: B. anthracis pathogenic strain (human isolate); assay: microbe, parasite or virus in culture; assay type: cell-based; settings: Bacillus anthracis; 16 h at 37 °C; read-out: MIC B. anthracis Pathogenic
[2] = test system: B. cereus (ATCC 10876); assay: microbe, parasite or virus in culture; assay type: cell-based; settings: Bacillus cereus, ATCC10876; 16 h at 37 °C; read-out: MIC B. cereus
[3] = test system: B. anthracis ovine strain (animal isolate); assay: microbe, parasite or virus in culture; assay type: cell-based; settings: Bacillus anthracis; 16 h at 37 °C; read-out: MIC B. anthracis Ovine
[4] = test system: B. anthracis Sterne strain; assay: microbe, parasite or virus in culture; assay type: cell-based; settings: Bacillus anthracis; 16 h at 37 °C; read-out: MIC B. anthracis Sterne
[5] = test system: E. faecalis (ATCC 29212); assay: microbe, parasite or virus in culture; assay type: cell-based; settings: Enterococcus faecalis, ATCC29212; 16 h at 37 °C; read-out: MIC E. faecalis
[6] = test system: B. cereus ATCC 14579; assay: microbe, parasite or virus in culture; assay type: cell-based, Bacillus cereus; settings: Bacillus cereus, ATCC14579
[7] = in vitro; settings: human
[8] = test system: B. cereus ATCC 14579 strains resistant to known antibiotics; assay: microbe, parasite or virus in culture; assay type: cell-based, Bacillus cereus
[9] = test system: Bacillus cereus ATCC 14579; settings: cited from earlier work

| Compound | MIC [1] [µM] | MIC [2] [µM] | MIC [3] [µM] | MIC [4] [µM] | MIC [5] [µM] | MIC [9] [µg/mL] | further results |
| --- | --- | --- | --- | --- | --- | --- | --- |
| CCCCCCCCCCCCO[C@H]1O[C@H](CO)C[C@H](O)[C@H]1O [Compound 15] | 51 (≈ 17 µg/mL) | 51 (≈ 17 µg/mL) | 51 (≈ 17 µg/mL) | 51 (≈ 17 µg/mL) | 51 (≈ 17 µg/mL) |  |  |
| CCCCCCCCCCCCO[C@H]1O[C@H](C)[C@@H](O)[C@H](O)[C@@H]1O [Compound 16] | 24 (≈ 7.98 µg/mL) | 48 (≈ 16 µg/mL) | > 48 | 24 (≈ 7.98 µg/mL) | > 48 |  |  |
| CCCCCCCCCCCCO[C@@H]1C[C@@H](O)[C@H](O)CO1 [Compound 17] | 52 (≈ 15.7 µg/mL) | 52 (≈ 15.7 µg/mL) | 52 (≈ 15.7 µg/mL) | 26 (≈ 7.86 µg/mL) | > 52 |  | MBC [6]: 16 µg/mL (≈ 52.9 µM); MIC [6]: 16 µg/mL (≈ 52.9 µM); IC50 at 24 h [7]: > 100 µM; IC50 at 48 h [7]: > 100 µM |
| CCCCCCCCCCCCO[C@H]1C[C@@H](O)[C@H](O)CO1 [Compound 18] | 26 (≈ 7.86 µg/mL) | 52 (≈ 15.7 µg/mL) | 52 (≈ 15.7 µg/mL) | 26 (≈ 7.86 µg/mL) | 52 (≈ 15.7 µg/mL) |  | IC50 at 24 h [7]: > 100 µM; IC50 at 48 h [7]: > 50 µM |
| CCCCCCCCCCCCS[C@@H]1C[C@@H](O)[C@H](O)CO1 [Compound 19] | 25 (≈ 7.96 µg/mL) | 25 (≈ 7.96 µg/mL) | 50 (≈ 15.9 µg/mL) | 50 (≈ 15.9 µg/mL) | 50 (≈ 15.9 µg/mL) |  |  |
| CCCCCCCCCCCCS[C@H]1C[C@@H](O)[C@H](O)CO1 [Compound 20] | 50 (≈ 15.9 µg/mL) | 50 (≈ 15.9 µg/mL) | 50 (≈ 15.9 µg/mL) | 25 (≈ 7.96 µg/mL) | > 50 |  | MBC [6]: 32 µg/mL (≈ 100 µM); MIC [6]: 32 µg/mL (≈ 100 µM) |
| CCCCCCCCCCCC[C@@H]1C[C@@H](O)[C@H](O)CO1 [Compound 21, 1-(2-Deoxy-α-D-threo-pentopyranosyl)dodecane] | 28 (≈ 8.02 µg/mL) | 28 (≈ 8.02 µg/mL) | 28 (≈ 8.02 µg/mL) | 28 (≈ 8.02 µg/mL) | 56 (≈ 16 µg/mL) |  | IC50 at 24 h [7]: > 100 µM; IC50 at 48 h [7]: 100 µM |
| CC[C@H]1OC(=O)[C@H](C)[C@@H](O[C@H]2C[C@@](C)(OC)[C@@H](O)[C@H](C)O2)[C@H](C)[C@@H](O[C@@H]2O[C@H](C)C[C@H](N(C)C)[C@H]2O)[C@](C)(O)C[C@@H](C)C(=O)[C@H](C)[C@@H](O)[C@]1(C)O [Erythromycin] |  |  |  |  |  | 8 (≈ 10.9 µM) | MIC of the antibiotic [8]: 20 µg/mL |
| CNC(C)C1CCC(N)C(OC2C(N)CC(N)C(OC3OCC(C)(O)C(NC)C3O)C2O)O1 (centres unmarked) [Gentamicin] |  |  |  |  |  | 4 (≈ 8.38 µM) |  |
| NC[C@H]1O[C@H](O[C@H]2[C@H](O)[C@@H](O[C@H]3O[C@H](CO)[C@@H](O)[C@H](N)[C@H]3O)[C@H](N)C[C@@H]2N)[C@H](O)[C@@H](O)[C@@H]1O [Kanamycin] |  |  |  |  |  | 15 (≈ 31 µM) |  |
| CCn1cc(C(=O)O)c(=O)c2cc(F)c(N3CCNCC3)cc21 [Norfloxacin] |  |  |  |  |  | 1.25 (≈ 3.91 µM) |  |
| CO[C@H]1/C=C/O[C@@]2(C)Oc3c(C)c(O)c4c(O)c(c(/C=N/N5CCN(C)CC5)c(O)c4c3C2=O)NC(=O)/C(C)=C\C=C\[C@H](C)[C@H](O)[C@@H](C)[C@@H](O)[C@@H](C)[C@H](OC(C)=O)[C@@H]1C [Rifampicin] |  |  |  |  |  | 0.5 (≈ 0.608 µM) |  |
| CN(C)[C@@H]1C(O)=C(C(N)=O)C(=O)[C@@]2(O)C(O)=C3C(=O)c4c(O)cccc4[C@@](C)(O)[C@H]3C[C@@H]12 [Tetracycline] |  |  |  |  |  | 2.5 (≈ 5.63 µM) | MIC of the antibiotic [8]: 50 µg/mL |
| Colistin |  |  |  |  |  | > 5000 |  |
| Daptomycin |  |  |  |  |  | 3.125 |  |
| Penicillin |  |  |  |  |  |  | MIC of the antibiotic [8]: 20 µg/mL |
